According to patent US20210308173A1, “PHARMACEUTICAL COMPOSITION COMPRISING CYCLODEXTRIN COMPLEXES OF ANETHOLE TRITHIONE OR DERIVATIVES THEREOF” (priority 2018, published 2021):
In brackets after ≈: the same amount, converted by molar mass.

Tests used:
Type in all cases: physicochemical
[1] = Co-solvent addition: AOL solubility; conditions: for solubility at 4 h: aqueous SBE-β-CD solution, aqueous with cosolvent or surfactant or cyclodextrin, thermodynamic from solid
Method: SBE-β-CD compatible excipients, namely polyethylene glycol and polysorbate (Tween), were evaluated for their AOL aqueous solubilizing power. Screening was carried out in same conditions as that of solubilization screening by cyclodextrins (see Example 3).
Briefly, 20% (w/w) solutions of each excipient were prepared. An excess of AOL was added and the solutions were analyzed by HPLC after 4 hours of stirring.
The effect of the combination of SBE-β-CD and Tween 80 was measured in a comparative assay by solubilizing AOL in: (A) Tween 80, 10% (w/w); (B) SBE-β-CD 10% (w/w) (C) Tween 80 and SBE-β-CD 10% (w/w) each; (D) Tween 80 20% (w/w) (E) SBE-β-CD 20% (w/w); and (F) Tween 80 and SBE-β-CD 20% (w/w) each.
Further assays, resumed in Tables 7 and 8, confirmed that Tween 80/SBE-β-CD is a promising excipient mixture for the solubilization of AOL.

[2] = Cyclodextrin solubilization screening of AOL; conditions: water, 25 °C, thermodynamic from solid, read-out: intrinsic solubility in water
[3] = Solubility testing in buffer containing media
Method: The solubility of AOL was tested in aqueous HP-β-CD and SBE-β-CD media at various concentrations and pH levels at room temperature. Some initial tests, where the pH of the formulations was adjusted only by addition of HCl or NaOH solutions, did evidence high variation in pH and difficulties to reach the target pH. Therefore, it was decided to prepare samples containing a buffering agent to get a stable pH and to facilitate the preparation of the formulations.
A citrate buffer was used at pH 5.5 and phosphate buffer were used at pH 6.5 and 7.5. The solubility (mg/mL) is the mean of 2 independent replicates.

[4] = Optimal SBE-β-CD/AOL molar ratio for solubilization
From the text: Using an optimized AOL/SBE-β-CD molar ratio enabled the Applicant to overcome all the aforementioned shortcomings. Indeed, the obtained formulation can be injected without exceeding the daily cyclodextrin administration threshold, solubilizes AOL without presenting a prohibiting viscosity. The chemical stability of AOL was maintained by such a formulation. […] Without willing to be bound by a theory the complex association (interaction outside the cavity of the cyclodextrin) enhances its solubility without hindering its bioavailability when the formulation is administered to a subject in need thereof.

Q: Which solubility at 4 h ([1]; SBE-β-CD 20% (w/w), Cremophor 10% (w/w)) does the source give for `COc1ccc(-c2cc(=S)ss2)cc1` [AOL, 5-(4-methoxyphenyl)-3H-1,2-dithiole-3-thione] here?
A: Its solubility at 4 h is 644 µg/mL.

Q: What about the solubility at 4 h ([1]; SBE-β-CD 20% (w/w), PVP 12PF 0.5% (w/w)) of the same compound?
A: The solubility at 4 h was 389 µg/mL.

Q: And the solubility at 4 h ([1]; SBE-β-CD 20% (w/w), PVP 12PF 2.0% (w/w))?
A: Its solubility at 4 h is 371 µg/mL.

Q: And the solubility at 4 h ([1]; SBE-β-CD 20% (w/w), Tween 80 2% (w/w))?
A: The solubility at 4 h was 374 µg/mL.

Q: What about the solubility at 4 h ([1]; SBE-β-CD 20% (w/w), Tween 80 10% (w/w)) of the same compound?
A: The solubility at 4 h was 587 µg/mL.

Q: What about the solubility at 4 h ([1]; SBE-β-CD 20% (w/w), Tween 80 20% (w/w)) of the same compound?
A: The solubility at 4 h was 829 µg/mL.

Q: And the solubility at 4 h ([1]; SBE-β-CD 20% (w/w), co-solvent 0% (w/w))?
A: The solubility at 4 h was 375 µg/mL.

Q: And the solubility at 4 h ([1]; SBE-β-CD 30% (w/w), Cremophor 10% (w/w))?
A: Its solubility at 4 h is 814 µg/mL.

Q: And the solubility at 4 h ([1]; SBE-β-CD 30% (w/w), PVP 12PF 0.5% (w/w))?
A: Its solubility at 4 h is 668 µg/mL.

Q: What about the solubility at 4 h ([1]; SBE-β-CD 30% (w/w), PVP 12PF 2.0% (w/w)) of the same compound?
A: Its solubility at 4 h is 670 µg/mL.

Q: What about the solubility at 4 h ([1]; SBE-β-CD 30% (w/w), Tween 80 2% (w/w)) of the same compound?
A: Its solubility at 4 h is 630 µg/mL.

Q: What about the solubility at 4 h ([1]; SBE-β-CD 30% (w/w), Tween 80 10% (w/w)) of the same compound?
A: Its solubility at 4 h is 616 µg/mL.

Q: And the solubility at 4 h ([1]; SBE-β-CD 30% (w/w), Tween 80 20% (w/w))?
A: The solubility at 4 h was 1280 µg/mL.

Q: What about the solubility at 4 h ([1]; SBE-β-CD 30% (w/w), co-solvent 0% (w/w)) of the same compound?
A: Its solubility at 4 h is 685 µg/mL.

Q: What about the “influence of PVP 12PF on solubility” value ([1]; cyclodextrin media) of the same compound?
A: Its value is “did not had any influence”.

Q: And the “solubility in Tween 80 compared with SBE-β-CD solutions” value ([1]; same temperature and concentration of excipient)?
A: The value was “higher solubility in Tween 80”.

Q: What about the solubility [2] of the same compound?
A: Its solubility is about 0.2 µg/mL (≈ 0.832 µM).

Q: And the solubility ([3]; aqueous SBE-β-CD medium with buffer, pH 5.5, aqueous with cosolvent or surfactant or cyclodextrin, SBE-β-CD 10.0% (w/w), Citrate (100 μM), room temperature, read-out: AOL solubility)?
A: The solubility was 165 µg/mL (≈ 686 µM).

Q: What about the solubility ([3]; aqueous SBE-β-CD medium with buffer, pH 5.5, aqueous with cosolvent or surfactant or cyclodextrin, SBE-β-CD 40.0% (w/w), Citrate (100 μM), room temperature, read-out: AOL solubility) of the same compound?
A: Its solubility is 1140 µg/mL (≈ 4730 µM).

Q: And the solubility ([3]; aqueous SBE-β-CD medium with buffer, pH 6.5, aqueous with cosolvent or surfactant or cyclodextrin, SBE-β-CD 10.0% (w/w), Phosphate 6.5 (100 μM), room temperature, read-out: AOL solubility)?
A: Its solubility is 168 µg/mL (≈ 699 µM).

Q: And the solubility ([3]; aqueous SBE-β-CD medium with buffer, pH 6.5, aqueous with cosolvent or surfactant or cyclodextrin, SBE-β-CD 40.0% (w/w), Phosphate 6.5 (100 μM), room temperature, read-out: AOL solubility)?
A: Its solubility is 1210 µg/mL (≈ 5020 µM).

Q: What about the solubility ([3]; aqueous SBE-β-CD medium with buffer, pH 7.5, aqueous with cosolvent or surfactant or cyclodextrin, SBE-β-CD 40.0% (w/w), Phosphate 7.5 (100 μM), room temperature, read-out: AOL solubility) of the same compound?
A: The solubility was 1180 µg/mL (≈ 4920 µM).

Q: And the solubility ([3]; buffered aqueous HP-β-CD medium, pH 5.5, aqueous with cosolvent or surfactant or cyclodextrin, HP-β-CD 10.0% (w/w), Citrate (100 μM), room temperature, read-out: AOL solubility)?
A: Its solubility is 79 µg/mL (≈ 329 µM).

Q: What about the solubility ([3]; buffered aqueous HP-β-CD medium, pH 5.5, aqueous with cosolvent or surfactant or cyclodextrin, HP-β-CD 20.0% (w/w), Citrate (100 μM), room temperature, read-out: AOL solubility) of the same compound?
A: The solubility was 212 µg/mL (≈ 882 µM).

Q: And the solubility ([3]; buffered aqueous HP-β-CD medium, pH 5.5, aqueous with cosolvent or surfactant or cyclodextrin, HP-β-CD 30.0% (w/w), Citrate (100 μM), room temperature, read-out: AOL solubility)?
A: The solubility was 505 µg/mL (≈ 2100 µM).

Q: And the solubility ([3]; buffered aqueous HP-β-CD medium, pH 5.5, aqueous with cosolvent or surfactant or cyclodextrin, HP-β-CD 40.0% (w/w), Citrate (100 μM), room temperature, read-out: AOL solubility)?
A: The solubility was 721 µg/mL (≈ 3000 µM).

Q: And the solubility ([3]; buffered aqueous HP-β-CD medium, pH 6.5, aqueous with cosolvent or surfactant or cyclodextrin, HP-β-CD 10.0% (w/w), Phosphate 6.5 (100 μM), room temperature, read-out: AOL solubility)?
A: Its solubility is 111 µg/mL (≈ 462 µM).

Q: And the solubility ([3]; buffered aqueous HP-β-CD medium, pH 6.5, aqueous with cosolvent or surfactant or cyclodextrin, HP-β-CD 20.0% (w/w), Phosphate 6.5 (100 μM), room temperature, read-out: AOL solubility)?
A: The solubility was 274 µg/mL (≈ 1140 µM).

Q: What about the solubility ([3]; buffered aqueous HP-β-CD medium, pH 6.5, aqueous with cosolvent or surfactant or cyclodextrin, HP-β-CD 30.0% (w/w), Phosphate 6.5 (100 μM), room temperature, read-out: AOL solubility) of the same compound?
A: Its solubility is 480 µg/mL (≈ 2000 µM).

Q: What about the solubility ([3]; buffered aqueous HP-β-CD medium, pH 6.5, aqueous with cosolvent or surfactant or cyclodextrin, HP-β-CD 40.0% (w/w), Phosphate 6.5 (100 μM), room temperature, read-out: AOL solubility) of the same compound?
A: Its solubility is 676 µg/mL (≈ 2810 µM).

Q: What about the solubility ([3]; buffered aqueous HP-β-CD medium, pH 7.5, aqueous with cosolvent or surfactant or cyclodextrin, HP-β-CD 10.0% (w/w), Phosphate 7.5 (100 μM), room temperature, read-out: AOL solubility) of the same compound?
A: The solubility was 112 µg/mL (≈ 466 µM).

Q: And the solubility ([3]; buffered aqueous HP-β-CD medium, pH 7.5, aqueous with cosolvent or surfactant or cyclodextrin, HP-β-CD 20.0% (w/w), Phosphate 7.5 (100 μM), room temperature, read-out: AOL solubility)?
A: Its solubility is 283 µg/mL (≈ 1180 µM).

Q: And the solubility ([3]; buffered aqueous HP-β-CD medium, pH 7.5, aqueous with cosolvent or surfactant or cyclodextrin, HP-β-CD 30.0% (w/w), Phosphate 7.5 (100 μM), room temperature, read-out: AOL solubility)?
A: Its solubility is 540 µg/mL (≈ 2250 µM).

Q: And the solubility ([3]; buffered aqueous HP-β-CD medium, pH 7.5, aqueous with cosolvent or surfactant or cyclodextrin, HP-β-CD 40.0% (w/w), Phosphate 7.5 (100 μM), room temperature, read-out: AOL solubility)?
A: Its solubility is 723 µg/mL (≈ 3010 µM).

Q: What about the solubility ([3]; buffered aqueous SBE-β-CD medium, pH 5.5, aqueous with cosolvent or surfactant or cyclodextrin, SBE-β-CD 20.0% (w/w), Citrate (100 μM), room temperature, read-out: AOL solubility) of the same compound?
A: The solubility was 369 µg/mL (≈ 1540 µM).

Q: And the solubility ([3]; buffered aqueous SBE-β-CD medium, pH 5.5, aqueous with cosolvent or surfactant or cyclodextrin, SBE-β-CD 30.0% (w/w), Citrate (100 μM), room temperature, read-out: AOL solubility)?
A: The solubility was 675 µg/mL (≈ 2810 µM).

Q: What about the solubility ([3]; buffered aqueous SBE-β-CD medium, pH 6.5, aqueous with cosolvent or surfactant or cyclodextrin, SBE-β-CD 20.0% (w/w), Phosphate 6.5 (100 μM), room temperature, read-out: AOL solubility) of the same compound?
A: The solubility was 382 µg/mL (≈ 1590 µM).

Q: What about the solubility ([3]; buffered aqueous SBE-β-CD medium, pH 6.5, aqueous with cosolvent or surfactant or cyclodextrin, SBE-β-CD 30.0% (w/w), Phosphate 6.5 (100 μM), room temperature, read-out: AOL solubility) of the same compound?
A: The solubility was 676 µg/mL (≈ 2810 µM).

Q: What about the solubility ([3]; buffered aqueous SBE-β-CD medium, pH 7.5, aqueous with cosolvent or surfactant or cyclodextrin, SBE-β-CD 10.0% (w/w), Phosphate 7.5 (100 μM), room temperature, read-out: AOL solubility) of the same compound?
A: The solubility was 170 µg/mL (≈ 707 µM).

Q: What about the solubility ([3]; buffered aqueous SBE-β-CD medium, pH 7.5, aqueous with cosolvent or surfactant or cyclodextrin, SBE-β-CD 20.0% (w/w), Phosphate 7.5 (100 μM), room temperature, read-out: AOL solubility) of the same compound?
A: Its solubility is 375 µg/mL (≈ 1560 µM).

Q: And the solubility ([3]; buffered aqueous SBE-β-CD medium, pH 7.5, aqueous with cosolvent or surfactant or cyclodextrin, SBE-β-CD 30.0% (w/w), Phosphate 7.5 (100 μM), room temperature, read-out: AOL solubility)?
A: Its solubility is 685 µg/mL (≈ 2850 µM).

Q: And the solubility ([3]; buffered aqueous cyclodextrin solution, pH 6.5, aqueous with cosolvent or surfactant or cyclodextrin, 40% SBE-β-cyclodextrin, pH 6.5 phosphate buffer, read-out: highest solubility value)?
A: Its solubility is 1210 µg/mL (≈ 5020 µM).

Q: What about the solubility ([3]; buffered aqueous cyclodextrin solution, pH 7.5, aqueous with cosolvent or surfactant or cyclodextrin, 40% HP-β-cyclodextrin, pH 7.5 phosphate buffer, read-out: highest solubility value) of the same compound?
A: Its solubility is 723 µg/mL (≈ 3010 µM).

Q: What about the “SBE-β-CD/AOL molar ratio at which optimal solubilization was observed” value [4] of the same compound?
A: The value was over 29.
